Results from patent publication US9550782B2, “Compounds and methods for treating diabetes” (Medivation Technologies, Inc., priority 2011, dated 2017).
Several values for one entry are separate records, joined by “and”; a condition that tells them apart may be missing. Equal values may be shown once.

What was measured:
[1] = biological target: T1, human recombinant adrenergic α2B receptor (Homo sapiens, UniProt P18089); experiment: Radioligand binding, adrenergic α2B ([3H]Rauwolscine)
T1 construct: expressed in transfected cells; host or cells: CHO-K1
T1 sequence (P18089 1-450): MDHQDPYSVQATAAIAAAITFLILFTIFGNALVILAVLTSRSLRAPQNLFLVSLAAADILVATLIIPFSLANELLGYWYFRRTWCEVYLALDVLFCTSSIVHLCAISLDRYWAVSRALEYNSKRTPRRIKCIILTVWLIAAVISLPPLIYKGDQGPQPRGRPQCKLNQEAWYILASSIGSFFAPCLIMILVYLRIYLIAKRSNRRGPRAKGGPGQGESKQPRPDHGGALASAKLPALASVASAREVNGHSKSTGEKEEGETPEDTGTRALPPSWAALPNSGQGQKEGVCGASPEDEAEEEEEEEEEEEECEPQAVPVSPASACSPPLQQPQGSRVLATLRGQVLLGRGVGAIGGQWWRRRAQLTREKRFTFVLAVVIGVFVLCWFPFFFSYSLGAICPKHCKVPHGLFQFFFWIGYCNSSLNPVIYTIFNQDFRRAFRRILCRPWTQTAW
Outline: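 Receptor expressed in CHO-K1 cells, assayed in 50 mM Tris-HCl pH 7.4 with 12.5 mM MgCl2, 1 mM EDTA and 0.2% BSA. Compounds were incubated with 2.5 nM [3H]Rauwolscine for 60 min at 25° C; 10 μM Prazosin defined non-specific binding. Filter counting gave percent inhibition of specific binding.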

[2] = biological target: T2, rat adrenergic α1B receptor (Rattus norvegicus, UniProt P15823); experiment: Radioligand binding, adrenergic α1B ([3H]Prazosin); parameters: species or system Wistar Rat; conditions: 0.1 μM compound
T2 construct: rat adrenergic α1B receptor obtained from Wistar Rat liver; from tissue; host or cells: Wistar rat liver
T2 sequence (P15823 1-515): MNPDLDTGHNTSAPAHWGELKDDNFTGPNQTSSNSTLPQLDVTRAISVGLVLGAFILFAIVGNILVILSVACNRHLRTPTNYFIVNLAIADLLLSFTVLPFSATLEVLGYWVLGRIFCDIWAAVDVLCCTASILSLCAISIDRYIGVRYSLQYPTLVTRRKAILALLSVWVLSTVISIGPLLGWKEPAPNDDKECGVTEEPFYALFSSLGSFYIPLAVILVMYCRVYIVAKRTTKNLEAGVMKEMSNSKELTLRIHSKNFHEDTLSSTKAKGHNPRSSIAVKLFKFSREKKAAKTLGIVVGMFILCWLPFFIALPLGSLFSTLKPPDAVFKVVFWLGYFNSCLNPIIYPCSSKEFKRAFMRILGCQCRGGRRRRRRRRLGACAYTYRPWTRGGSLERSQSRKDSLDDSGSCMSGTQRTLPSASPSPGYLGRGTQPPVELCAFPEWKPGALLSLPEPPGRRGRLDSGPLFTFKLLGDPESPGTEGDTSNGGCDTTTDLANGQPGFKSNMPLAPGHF
Outline: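 Filter binding with Wistar rat liver α1B preparation: test compound plus 0.25 nM [3H]prazosin, 1 h at 25° C in modified Tris-HCl buffer pH 7.4.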

[3] = biological target: T3, human recombinant adrenergic α2A receptor (Homo sapiens, UniProt P08913); experiment: Radioligand binding, adrenergic α2A ([3H]MK-912); conditions: 0.1 μM compound, [3H]MK-912
T3 construct: expressed in transfected cells; host or cells: insect Sf9 cells
T3 sequence (P08913 1-465): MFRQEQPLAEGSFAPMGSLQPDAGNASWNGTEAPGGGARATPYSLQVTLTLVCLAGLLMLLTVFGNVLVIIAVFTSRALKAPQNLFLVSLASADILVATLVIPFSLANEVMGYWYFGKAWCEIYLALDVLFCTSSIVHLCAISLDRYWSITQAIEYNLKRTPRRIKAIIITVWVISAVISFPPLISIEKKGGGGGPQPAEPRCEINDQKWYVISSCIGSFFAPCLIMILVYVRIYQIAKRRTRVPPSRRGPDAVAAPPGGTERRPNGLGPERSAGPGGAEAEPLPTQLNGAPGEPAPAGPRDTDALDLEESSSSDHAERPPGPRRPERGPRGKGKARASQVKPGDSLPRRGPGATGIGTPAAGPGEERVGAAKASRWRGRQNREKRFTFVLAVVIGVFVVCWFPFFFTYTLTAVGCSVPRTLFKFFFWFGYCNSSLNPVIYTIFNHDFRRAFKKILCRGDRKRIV
Outline: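 In 50 mM Tris-HCl (pH 7.4) containing 12.5 mM MgCl2 and 2 mM EDTA, Sf9-expressed receptor was exposed to test compound plus 1 nM [3H]MK-912 at 25 °C for 60 min. Specific binding, corrected using 10 μM WB-4101, was quantified by filtration and counting and expressed as percent inhibition.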

Structure (SMILES)	Percentage inhibition of ligand binding, Adrenergic α2B ([1]; 0.03 μM compound, 0.03 µM)	Percentage inhibition of ligand binding, Adrenergic α1B ([2]; 0.1 µM)	Percentage inhibition of ligand binding, Adrenergic α2A ([3]; 0.1 µM)	Percentage inhibition of ligand binding, Adrenergic α1B [2]	Percentage inhibition of ligand binding, Adrenergic α2A [3]	Percentage inhibition of ligand binding, Adrenergic α2B ([1]; 0.03 μM compound)	Percentage inhibition of ligand binding, Adrenergic α2B ([1]; 0.1 μM compound)
Cc1ccc2c(c1)c1c(n2CC(O)c2ccncc2Cl)CCN(C)C1 (single isomer, unassigned) [135a]	42%	60%	4%	–	–	–	–
Cc1ccc2c(c1)c1c(n2CC(O)c2ccncc2Cl)CCN(C)C1 (single isomer, unassigned) [135b]	68%	30%	22%	–	–	–	–
Cc1cnc2c(c1)c1c(n2CC(O)c2ccc(F)cc2)CCN(C)C1 (single isomer, unassigned) [136a]	34%	–	16%	54%	–	–	–
Cc1ccc(CCn2c3c(c4cc(Cl)cnc42)C2CCCN2CC3)cn1 (single isomer, unassigned) [137b]	30%	23%	–	–	6%	–	–
Cc1cnc2c(c1)c1c(n2CC(C)(O)c2ccc(F)cc2)CCN(C)C1 (single isomer, unassigned) [138a]	63%	61%	−8%	–	–	–	–
Cc1cnc2c(c1)c1c(n2CC(C)(O)c2ccc(F)cc2)CCN(C)C1 (single isomer, unassigned) [138b]	25%	22%	4%	–	–	–	–
CN1CCc2c(c3cc(Cl)ccc3n2CC(C)(O)c2ccc(C(F)(F)F)nc2)C1 (single isomer, unassigned) [143b]	–	17%	–	–	0%	49%	–
Cc1ccc2c(c1)c1c(n2CC(C)(OC(=O)C(C)C)c2cccnc2)CCN(C)C1 (single isomer, unassigned) [146a]	37%	41%	−1%	–	–	–	–
Cc1ccc2c(c1)c1c(n2CC(C)(OC(=O)C(C)C)c2cccnc2)CCN(C)C1 (single isomer, unassigned) [146b]	63%	11%	21%	–	–	–	–
Cc1cnc2c(c1)c1c(n2CC(C)(O)c2ccc(C)nc2)CCN2CCCC12 (single isomer, unassigned) [148a]	52%	23%	−5%	–	–	–	–
Cc1cnc2c(c1)c1c(n2CC(C)(O)c2ccc(C)nc2)CCN2CCCC12 (single isomer, unassigned) [148c]	16%	6%	−1%	–	–	–	–
Cc1ccc2c(c1)c1c(n2CC(c2ccncc2)N(C)C)CCN(C)C1 (single isomer, unassigned) [150a]	88% and 96%	16%	16%	–	–	–	100%
Cc1ccc2c(c1)c1c(n2CC(N)c2ccncc2)CC2CCC1N2C (single isomer, unassigned) [155b]	–	1%	5%	–	–	5%	–
